± gives the expanded uncertainty stated by the source.
Key:
[1] = Molar enthalpy of transition or fusion; conditions: Crystal 2; DSC
[2] = DSC

| Structure (SMILES) | Molar enthalpy of transition or fusion [1] [kcal/mol] | Triple point temperature ([2]; Crystal 1) [K] | Triple point temperature ([2]; Crystal 2) [K] | Triple point temperature ([2]; Crystal) [K] |
| --- | --- | --- | --- | --- |
| O=S(=O)([N-]S(=O)(=O)C(F)(F)F)C(F)(F)F.[Li+] [lithium bis((trifluoromethyl)sulfonyl)amide] | 2.84 ± 0.287 | 508 ± 4 | 422 ± 4 |  |
| CC[N+](C)(C)C.O=S(=O)([N-]S(=O)(=O)C(F)(F)F)C(F)(F)F [ethyltrimethylammonium bis(trifluoromethylsulfonyl)imide] |  |  |  | 383 ± 4 |
| CCCC[N+](CCCC)(CCCC)CCCC.O=S(=O)([N-]S(=O)(=O)C(F)(F)F)C(F)(F)F [tetrabutylammonium bis[(trifluoromethyl)sulfonyl]imide] |  |  |  | 365 ± 4 |
| CCCCCCCCCCCCCCCC[N+](C)(C)C.O=S(=O)([N-]S(=O)(=O)C(F)(F)F)C(F)(F)F | 7.03 ± 0.717 | 335 ± 4 | 319 ± 4 |  |

Reference: the NIST ThermoML archive (doi:10.1021/acs.jced.5b00807)
